Measurements from PubChem BioAssay AID330 (DTP/NCI, 2004).
“And” between values parts separate entries of the source, which are not always exact repeats. Identical values can stand only once. Inconclusive results and toxic doses are left out.

System: P388 leukemia ip, CD2F1 mice, survival T/C
Experiment: NCI In Vivo Anticancer Drug Screen. Data for tumor model P388 Leukemia (intraperitoneal) in CD2F1 (CDF1) mice
Details: endpoint: median survival time, higher = longer survival
How it was run: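 Mice carrying the transplanted tumor received test compound or vehicle. Survival was recorded in each group, and the value is the treated-group measurement divided by that of the vehicle-treated control group.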

O=NN(CCCl)C(=O)NCCCl
T/C (dose: 1.0 mg/kg/injection, schedule: Q01DX001 (ip), vehicle: Klucel (hydroxypropylcellulose) (HPC)): 122 % of control | T/C (dose: 1.0 mg/kg/injection, schedule: Q01DX001 (ip), vehicle: saline with Tween-80): 115 % of control | T/C (dose: 1.0 mg/kg/injection, schedule: Q01DX001 (ip), vehicle: suspension in saline): 107 % of control | T/C (dose: 1.0 mg/kg/injection, schedule: Q01DX005 (ip), vehicle: saline + alcohol): 112 % of control | T/C (dose: 2.0 mg/kg/injection, schedule: Q01DX001 (ip), vehicle: Klucel (hydroxypropylcellulose) (HPC)): 112 % of control | T/C (dose: 2.0 mg/kg/injection, schedule: Q01DX001 (ip), vehicle: saline with Tween-80): 107 % of control | T/C (dose: 2.0 mg/kg/injection, schedule: Q01DX001 (ip), vehicle: suspension in saline): 117 % of control | T/C (dose: 2.0 mg/kg/injection, schedule: Q01DX009 (ip), vehicle: other): 163 % of control and 175 % of control | T/C (dose: 2.0 mg/kg/injection, schedule: Q01DX009 (ip), vehicle: saline with Tween-80): 173 % of control | T/C (dose: 2.5 mg/kg/injection, schedule: Q04DX003 (iv), vehicle: saline + alcohol): 152 % of control | T/C (dose: 3.24 mg/kg/injection, schedule: Q04DX003 (ip), vehicle: saline + alcohol): 208 % of control | T/C (dose: 3.3 mg/kg/injection, schedule: Q01DX005 (ip), vehicle: Klucel (hydroxypropylcellulose) (HPC)): 267 % of control | T/C (dose: 3.3 mg/kg/injection, schedule: Q01DX005 (ip), vehicle: saline + alcohol): 250 % of control and 265 % of control | T/C (dose: 3.3 mg/kg/injection, schedule: Q01DX009 (ip), vehicle: saline + alcohol): 183 % of control | T/C (dose: 3.75 mg/kg/injection, schedule: Q04DX003 (ip), vehicle: saline): 176 % of control | T/C (dose: 3.89 mg/kg/injection, schedule: Q04DX003 (ip), vehicle: saline + alcohol): 178 % of control | T/C (dose: 4.0 mg/kg/injection, schedule: Q01DX001 (ip), vehicle: saline + alcohol): 123 % of control | T/C (dose: 4.0 mg/kg/injection, schedule: Q01DX005 (ip), vehicle: saline + alcohol): 170 % of control | T/C (dose: 4.0 mg/kg/injection, schedule: Q01DX009 (ip), vehicle: other): 215 % of control and 287 % of control | T/C (dose: 4.0 mg/kg/injection, schedule: Q01DX009 (ip), vehicle: saline with Tween-80): 262 % of control | T/C (dose: 4.4 mg/kg/injection, schedule: Q01DX005 (ip), vehicle: saline + alcohol): 222 % of control | T/C (dose: 5.0 mg/kg/injection, schedule: Q04DX003 (ip), vehicle: saline + alcohol): 206 % of control | T/C (dose: 5.0 mg/kg/injection, schedule: Q04DX003 (iv), vehicle: saline + alcohol): 177 % of control | T/C (dose: 5.4 mg/kg/injection, schedule: Q04DX003 (ip), vehicle: saline + alcohol): 185 % of control | T/C (dose: 6.48 mg/kg/injection, schedule: Q04DX002 (ip), vehicle: saline + alcohol): 163 % of control and 169 % of control | T/C (dose: 6.48 mg/kg/injection, schedule: Q04DX003 (ip), vehicle: saline + alcohol): 219 % of control | T/C (dose: 6.6 mg/kg/injection, schedule: Q01DX005 (ip), vehicle: saline + alcohol): 305 % of control | T/C (dose: 7.5 mg/kg/injection, schedule: Q01DX001 (iv), vehicle: saline + alcohol): 164 % of control | T/C (dose: 7.5 mg/kg/injection, schedule: Q04DX003 (ip), vehicle: saline): 219 % of control | T/C (dose: 8.0 mg/kg/injection, schedule: Q01DX001 (ip), vehicle: Klucel (hydroxypropylcellulose) (HPC)): 171 % of control | T/C (dose: 8.0 mg/kg/injection, schedule: Q01DX001 (ip), vehicle: suspension in saline): 166 % of control | T/C (dose: 8.0 mg/kg/injection, schedule: Q01DX001 (ip), vehicle: water): 200 % of control | T/C (dose: 8.0 mg/kg/injection, schedule: Q01DX005 (ip), vehicle: saline + alcohol): 254 % of control | T/C (dose: 8.0 mg/kg/injection, schedule: Q01DX009 (ip), vehicle: other): 264 % of control and 370 % of control | T/C (dose: 8.0 mg/kg/injection, schedule: Q01DX009 (ip), vehicle: saline with Tween-80): 297 % of control | T/C (dose: 9.0 mg/kg/injection, schedule: Q04DX003 (ip), vehicle: saline + alcohol): 180 % of control | T/C (dose: 10.0 mg/kg/injection, schedule: Q01DX005 (ip), vehicle: Klucel (hydroxypropylcellulose) (HPC)): 123 % of control | T/C (dose: 10.0 mg/kg/injection, schedule: Q01DX009 (ip), vehicle: Klucel (hydroxypropylcellulose) (HPC)): 98 % of control | T/C (dose: 10.0 mg/kg/injection, schedule: Q01DX009 (ip), vehicle: saline): 240 % of control | T/C (dose: 10.0 mg/kg/injection, schedule: Q04DX003 (ip), vehicle: saline + alcohol): 320 % of control | T/C (dose: 10.0 mg/kg/injection, schedule: Q04DX003 (iv), vehicle: saline + alcohol): 265 % of control | T/C (dose: 10.8 mg/kg/injection, schedule: Q04DX002 (ip), vehicle: saline + alcohol): 200 % of control and 206 % of control | T/C (dose: 10.8 mg/kg/injection, schedule: Q04DX003 (ip), vehicle: saline + alcohol): 295 % of control | T/C (dose: 12.5 mg/kg/injection, schedule: Q01DX005 (ip), vehicle: saline with Tween-80): 275 % of control and 315 % of control | T/C (dose: 15.0 mg/kg/injection, schedule: Q01DX001 (iv), vehicle: saline + alcohol): 222 % of control | T/C (dose: 15.0 mg/kg/injection, schedule: Q01DX009 (ip), vehicle: saline): 300 % of control | T/C (dose: 15.0 mg/kg/injection, schedule: Q04DX003 (ip), vehicle: saline + alcohol): 336 % of control | T/C (dose: 15.0 mg/kg/injection, schedule: Q04DX003 (ip), vehicle: saline): 355 % of control | T/C (dose: 16.0 mg/kg/injection, schedule: Q01DX001 (ip), vehicle: Klucel (hydroxypropylcellulose) (HPC)): 210 % of control | T/C (dose: 16.0 mg/kg/injection, schedule: Q01DX001 (ip), vehicle: saline with Tween-80): 192 % of control and 240 % of control | T/C (dose: 16.0 mg/kg/injection, schedule: Q01DX001 (ip), vehicle: suspension in saline): 186 % of control | T/C (dose: 16.0 mg/kg/injection, schedule: Q01DX001 (ip), vehicle: water): 429 % of control | T/C (dose: 16.0 mg/kg/injection, schedule: Q01DX001 (oral), vehicle: saline with Tween-80): 163 % of control | T/C (dose: 16.0 mg/kg/injection, schedule: Q01DX005 (ip), vehicle: saline + alcohol): 409 % of control | T/C (dose: 16.0 mg/kg/injection, schedule: Q01DX009 (ip), vehicle: other): 111 % of control and 120 % of control | T/C (dose: 16.0 mg/kg/injection, schedule: Q01DX009 (ip), vehicle: saline with Tween-80): 118 % of control | T/C (dose: 18.0 mg/kg/injection, schedule: Q04DX002 (ip), vehicle: saline + alcohol): 250 % of control and 254 % of control | T/C (dose: 18.0 mg/kg/injection, schedule: Q04DX003 (ip), vehicle: saline + alcohol): 419 % of control | T/C (dose: 20.0 mg/kg/injection, schedule: Q01DX001 (ip), vehicle: Klucel (hydroxypropylcellulose) (HPC)): 241 % of control | T/C (dose: 20.0 mg/kg/injection, schedule: Q04DX003 (ip), vehicle: saline + alcohol): 165 % of control | T/C (dose: 20.0 mg/kg/injection, schedule: Q04DX003 (iv), vehicle: saline + alcohol): 291 % of control | T/C (dose: 24.0 mg/kg/injection, schedule: Q01DX001 (ip), vehicle: saline): 230 % of control | T/C (dose: 25.0 mg/kg/injection, schedule: Q01DX005 (ip), vehicle: saline with Tween-80): 184 % of control | T/C (dose: 25.0 mg/kg/injection, schedule: Q04DX003 (ip), vehicle: saline + alcohol): 233 % of control | T/C (dose: 30.0 mg/kg/injection, schedule: Q01DX001 (iv), vehicle: saline + alcohol): 352 % of control | T/C (dose: 30.0 mg/kg/injection, schedule: Q01DX009 (ip), vehicle: saline): 110 % of control | T/C (dose: 30.0 mg/kg/injection, schedule: Q04DX002 (ip), vehicle: saline + alcohol): 416 % of control and 441 % of control | T/C (dose: 30.0 mg/kg/injection, schedule: Q04DX003 (ip), vehicle: saline + alcohol): 166 % of control | T/C (dose: 30.0 mg/kg/injection, schedule: Q04DX003 (ip), vehicle: saline): 441 % of control | T/C (dose: 31.25 mg/kg/injection, schedule: Q01DX001 (ip), vehicle: saline with Tween-80): 275 % of control | T/C (dose: 32.0 mg/kg/injection, schedule: Q01DX001 (ip), vehicle: Klucel (hydroxypropylcellulose) (HPC)): 269 % of control | T/C (dose: 32.0 mg/kg/injection, schedule: Q01DX001 (ip), vehicle: saline with Tween-80): 272 % of control and 588 % of control | T/C (dose: 32.0 mg/kg/injection, schedule: Q01DX001 (ip), vehicle: saline): 606 % of control | T/C (dose: 32.0 mg/kg/injection, schedule: Q01DX001 (ip), vehicle: suspension in saline): 289 % of control | T/C (dose: 32.0 mg/kg/injection, schedule: Q01DX001 (ip), vehicle: water): 429 % of control | T/C (dose: 32.0 mg/kg/injection, schedule: Q01DX001 (oral), vehicle: saline with Tween-80): 227 % of control | T/C (dose: 40.0 mg/kg/injection, schedule: Q01DX001 (ip), vehicle: Klucel (hydroxypropylcellulose) (HPC)): 267 % of control | T/C (dose: 62.5 mg/kg/injection, schedule: Q01DX001 (ip), vehicle: saline with Tween-80): 275 % of control and 297 % of control | T/C (dose: 64.0 mg/kg/injection, schedule: Q01DX001 (ip), vehicle: saline with Tween-80): 107 % of control and 58 % of control | T/C (dose: 64.0 mg/kg/injection, schedule: Q01DX001 (ip), vehicle: suspension in saline): 161 % of control | T/C (dose: 64.0 mg/kg/injection, schedule: Q01DX001 (oral), vehicle: saline with Tween-80): 118 % of control | T/C (dose: 80.0 mg/kg/injection, schedule: Q01DX001 (ip), vehicle: Klucel (hydroxypropylcellulose) (HPC)): 267 % of control | T/C (dose: 128.0 mg/kg/injection, schedule: Q01DX001 (ip), vehicle: Klucel (hydroxypropylcellulose) (HPC)): 98 % of control | T/C (dose: 128.0 mg/kg/injection, schedule: Q01DX001 (ip), vehicle: saline with Tween-80): 98 % of control and 58 % of control | T/C (dose: 128.0 mg/kg/injection, schedule: Q01DX001 (ip), vehicle: suspension in saline): 107 % of control
